Results as given in the supplement of paper PMC10307832.

Experiments:
Test in all cases: relative viability (nuclei count vs DMSO), 5 days (fraction); higher = more cells survive
GW-2580 + Luminespib = compound: COC1=CC=C(C=C1)COC2=C(C=C(C=C2)CC3=CN=C(N=C3N)N)OC [GW-2580] + CCNC(=O)c1noc(-c2cc(C(C)C)c(O)cc2O)c1-c1ccc(CN2CCOCC2)cc1 [Luminespib] (partner 0.01 µM)
Method in brief: (§1)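 Lung cancer cell lines in 1536-well plates got either a single drug or a fixed anchor-drug dose together with five library-drug doses (not always all listed) in √10 steps, by pin tool, on the day after seeding. Nuclei were counted after 5 days, and relative viability is the treated-to-vehicle ratio of nuclei counts. Values are medians of duplicate plates.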

GW-2580 + Olaparib = compound: COC1=CC=C(C=C1)COC2=C(C=C(C=C2)CC3=CN=C(N=C3N)N)OC [GW-2580] + O=C(c1cc(Cc2n[nH]c(=O)c3ccccc23)ccc1F)N1CCN(C(=O)C2CC2)CC1 [Olaparib] (partner 8 µM)
Method in brief: as §1

Fedratinib + Foretinib = compound: Cc1cnc(Nc2ccc(OCCN3CCCC3)cc2)nc1Nc1cccc(S(=O)(=O)NC(C)(C)C)c1 [Fedratinib] + COc1cc2c(Oc3ccc(NC(=O)C4(C(=O)Nc5ccc(F)cc5)CC4)cc3F)ccnc2cc1OCCCN1CCOCC1 [Foretinib] (partner 0.25 µM)
Method in brief: as §1

Fedratinib + Crizotinib = compound: Cc1cnc(Nc2ccc(OCCN3CCCC3)cc2)nc1Nc1cccc(S(=O)(=O)NC(C)(C)C)c1 [Fedratinib] + C[C@@H](Oc1cc(-c2cnn(C3CCNCC3)c2)cnc1N)c1c(Cl)ccc(F)c1Cl [Crizotinib] (partner 1 µM)
Method in brief: as §1

Fedratinib + Linsitinib = compound: Cc1cnc(Nc2ccc(OCCN3CCCC3)cc2)nc1Nc1cccc(S(=O)(=O)NC(C)(C)C)c1 [Fedratinib] + C[C@]1(O)C[C@@H](c2nc(-c3ccc4ccc(-c5ccccc5)nc4c3)c3c(N)nccn32)C1 [Linsitinib] (partner 1 µM)
Method in brief: as §1

Fedratinib + Decitabine = compound: Cc1cnc(Nc2ccc(OCCN3CCCC3)cc2)nc1Nc1cccc(S(=O)(=O)NC(C)(C)C)c1 [Fedratinib] + Nc1ncn([C@H]2C[C@H](O)[C@@H](CO)O2)c(=O)n1 [Decitabine] (partner 2 µM)
Method in brief: as §1

Cell Line	relative viability (GW-2580 + Luminespib; first compound 0.08 µM)	relative viability (GW-2580 + Luminespib; first compound 0.8 µM)	relative viability (GW-2580 + Luminespib; first compound 2.53 µM)	relative viability (GW-2580 + Luminespib; first compound 8 µM)	relative viability (GW-2580 + Olaparib; first compound 0.08 µM)	relative viability (GW-2580 + Olaparib; first compound 0.8 µM)	relative viability (GW-2580 + Olaparib; first compound 2.53 µM)	relative viability (GW-2580 + Olaparib; first compound 8 µM)	relative viability (Fedratinib + Foretinib; first compound 0.1 µM)	relative viability (Fedratinib + Foretinib; first compound 0.3162 µM)	relative viability (Fedratinib + Foretinib; first compound 1 µM)	relative viability (Fedratinib + Crizotinib; first compound 0.1 µM)	relative viability (Fedratinib + Crizotinib; first compound 0.3162 µM)	relative viability (Fedratinib + Crizotinib; first compound 1 µM)	relative viability (Fedratinib + Linsitinib; first compound 0.1 µM)	relative viability (Fedratinib + Linsitinib; first compound 0.3162 µM)	relative viability (Fedratinib + Linsitinib; first compound 1 µM)	relative viability (Fedratinib + Decitabine; first compound 0.1 µM)	relative viability (Fedratinib + Decitabine; first compound 0.3162 µM)	relative viability (Fedratinib + Decitabine; first compound 1 µM)
NCI-H647	0.128	0.323	0.136	0.205	0.776	0.667	0.444	0.71	1.16	1.23	1.16	1.06	1.09	0.584	1.14	1.16	1.11	0.581	0.327	0.372
NCI-H650	0.872	0.857	0.676	0.618	0.373	0.379	0.364	0.472	0.943	1.01	1.01		0.682	0.668		0.994	0.596	0.349	0.372	0.34
NCI-H661	0.978	0.996	0.931	0.704	0.807	0.813	0.722	0.665	0.959	1.1	1	0.964	0.948	1.04	0.512	0.533	0.622	0.566	0.54	0.423
NCI-H727		0.539	0.344	0.382	0.637	0.63	0.699	0.69	0.835	0.808	0.779	0.791	0.688	0.661	0.2	0.213	0.335	0.864	0.792	0.874
NCI-H838	0.266	0.31	0.376	0.338	0.906	0.938	0.838	0.94	1.05	1.06	0.989	0.669	0.847	0.745	1.01	1.05	0.984	0.444	0.454	0.431
NCI-H1355	0.816	0.841	0.694	0.669	0.804	0.836	0.669	0.691	1.06	0.973	0.913	1.06	1.04	1.07	0.684	0.822	0.796	0.344	0.353	0.356
NCI-H1437	1.17	1.16	1.05	0.786	0.672	0.662	0.631	0.602	1.25	1.25	1.33	0.999	0.883	0.922	1.03	0.978	0.884	0.603	0.583	0.6
NCI-H1651	0.877	1.01	0.8	0.823	0.175	0.183	0.196	0.197	0.813	0.73	0.761	0.931	0.875	0.808	0.976	0.954	1.01	0.365	0.629	0.618
NCI-H1666	0.984	1.09	0.918	0.928	0.758	0.757	0.794	0.737	0.927	0.991	0.962	1.03	0.994	0.843	0.726	0.875	0.869	0.638	0.746	0.7
NCI-H1734	0.169	0.171	0.193	0.19	0.65	0.589	0.585	0.636	0.665	0.921	0.786	0.629	0.692	0.629	0.898	0.865	0.776	0.444	0.399	0.529
NCI-H1755	0.697	0.401	0.332	0.45	0.984	0.905	0.737	0.785	0.937	0.977	0.874	0.858	0.862	0.802	0.995	1	0.885	0.662	0.723	0.664
NCI-H1915	0.852	1.12	0.429	0.917	0.222	0.233	0.293	0.259	1.09	1.08	1.05	0.942	0.866	0.777	1.04	1.08	1.03	0.266	0.258	0.247
NCI-H1944	0.692	0.767	0.7	0.628	0.427	0.432	0.378	0.399	0.837	0.962	0.824	1.12	1.09	1.04	1.28	1.12	1.1	0.435	0.451	0.421
NCI-H1975	0.186	0.5	0.162	0.193	0.815	0.864	0.874	0.806	1.09	0.947	0.746	0.802	0.928	0.663	0.897	0.929	0.872	0.372	0.315	0.343
NCI-H1993	0.853	0.907	0.71	0.852	0.985	1.07	1.06	1.04	0.763	0.818	0.808	0.747	0.773	0.848	0.706	0.718	0.682	0.473	0.725	0.704
NCI-H2009	1.15	1.11	0.999	0.876	0.752	0.698	0.918	0.645	1.12	1.23	1.1	1.04	0.977	0.884	1.18	1.18	1.17	0.368	0.406	0.356
NCI-H2023	0.932	1.07	1.26	0.717	0.541	0.589	0.457	0.511	0.8	0.873	0.643	0.585	0.715	0.58	0.603	0.673	0.601	0.21	0.23	0.117
NCI-H2085	0.529	0.364	0.436	0.411	0.741	0.784	0.84	0.757	0.883	0.861	0.909	0.769	0.953	0.812	0.845	0.872	0.858	0.53	0.563	0.518
NCI-H2087	0.133	0.179	0.174	0.164	0.668	0.934	0.608	0.542	0.65	1.01	1.01	0.735	0.879	0.831	1.02	0.923	0.859	0.206	0.242	0.219
NCI-H2126	0.96	1	0.907	0.825	1.02	0.942	0.793	0.851	1.07	1.06	1.08	1.01	0.989	0.996	0.689	0.732	0.682	0.532	0.596	0.605
NCI-H2347	0.491	0.656	0.369	0.471	0.538	0.616	0.54	0.595	0.869	0.853	0.829	0.721	0.667	0.679	0.871	0.922	0.878	0.637	0.631	0.647
NCI-H2405	0.727	0.604	0.671	0.586	0.911	0.981	0.797	0.712	1.03	1.02	1.01	0.796	0.849	0.818	0.704	0.962	0.702	0.729	0.725	0.663
NCI-H3122	0.0808	0.0609	0.0868	0.0798	0.682	0.739	0.675	0.648	0.956	0.9	0.941	0.317	0.235	0.265	1.02	1.01	0.948	0.392	0.417	0.403
PC-3 [JPC-3]	0.719	0.774	0.544	0.705	1.12	1.26	1.03	1.15	0.982	1.08	1.06	0.998	0.944	0.985	0.924	0.932	0.951	0.717	0.827	0.75
PC-14	0.144	0.129	0.175	0.131	0.243	0.247	0.242	0.295	0.975	1.08	1	0.926	0.874	0.92	0.927	1.03	0.92	0.193	0.23	0.094
RERF-LC-KJ	1.23	1.56	1.35	1.14	1	1.04	0.888	0.861	0.883	0.904	0.864	0.834	0.883	0.786	0.805	0.906	0.855	0.64	0.635	0.277
SK-LU-1	0.206	0.183	0.212	0.206	0.431	0.497	0.389	0.503	0.819	0.78	0.504		0.836	0.584		0.999	1.01	0.614	0.599	0.615
SK-MES-1	0.869	0.989	0.701	0.83	0.79	0.795	0.603	0.777	0.865	1.07	0.795	1.04	0.992	0.923	1.08	1.11	1	0.394	0.409	0.241
SW 1573	0.257	0.213	0.24	0.217	0.477	0.474	0.492	0.543	0.906	0.947	0.807	0.747	0.733	0.709	0.683	0.768	0.802	0.524	0.577	0.105
